# Experimental data taken from patent US20030166483A1, “Use of 3-iodine-2-propinyl-carbamates as antimicrobial active agent” (priority 2003, published 2003).
# Legend:
# Format in all cases: cell-based
# [1] = system: Trichophyton mentagrophytes, ATCC 9533; assay: Fungicidal activity by the DGHM germ carrier test; parameters: key: +: living culture; −: dead culture
# Experimental: (§1) Candida albicans, ATCC 10231 (precultured on CaSo agar, 4 d/25° C.), Aspergillus niger, ATCC 6275 (precultured on malt agar, 8d/25° C.), Trichophyton mentagrophytes, ATCC 9533 (precultured on malt agar, 8d/25° C.), Cladosporium cladosporioides, DSM 62121 (precultured on malt agar, 8d/25° C.), Epicoccum nigrum, self-isolate (precultured on malt agar, 8d/25°).
# (§2) The inocula were obtained by floating off the preculture plates with 0.05% Tween®80 and had the following germ contents:
# (§3) The test was carried out under the Richtlinien für die Prüfung und Bewertung chemischer Desinfektionsverfahren (Guidelines for the Testing and Evaluation of Chemical Disinfection Processes) of the Deutsche Gesellschaft für Hygiene und Mikrobiologie (DGHM), Gustav Fischer Verlag, 1981:
# (§4) 16 prewashed and autoclaved test specimens were placed in the above-mentioned inoculation suspensions of the test fungi and left therein for 15 minutes during which they were turned over several times. The test specimens thus contaminated were then transferred to empty Petri dishes where 10 ml of the test solutions were poured over them. After contact times of 60 and 120 minutes at 20° C., two of the test specimens were removed, briefly transferred to 10 ml of DGHM inactivator solution and then inoculated onto CaSo plates (Candida) or malt agar plates (other test fungi). Incubation lasted 7 days at 25° C. and was followed by qualitative evaluation, i.e. growth yes (+) or no (−).
# [2] = system: Cladosporium cladosporioides, DSM 62121; assay: Fungicidal activity by the DGHM germ carrier test; parameters: key: +: living culture; −: dead culture
# Experimental: as §1, §2, §3, §4
# [3] = system: Candida albicans, ATCC 10231; assay: Fungicidal activity by the DGHM germ carrier test; parameters: key: +: living culture; −: dead culture
# Experimental: as §1, §2, §3, §4
# [4] = system: Aspergillus niger, ATCC 6275; assay: Fungicidal activity by the DGHM germ carrier test; parameters: key: +: living culture; −: dead culture
# Experimental: as §1, §2, §3, §4
# [5] = system: Epicoccum nigrum, self-isolate; assay: Fungicidal activity by the DGHM germ carrier test; parameters: key: +: living culture; −: dead culture
# Experimental: as §1, §2, §3, §4
# [6] = system: dermatophytes, fungi producing mildew spots and material-damaging fungi; assay: Fungistatic activity, overall result; details: by comparison with the reference preparation
# Experimental: (§5) 1×1 cm prewashed and autoclaved test specimens of standard cotton cloth to DIN 53919 (WfK-Testgewebe GmbH, Adlerstr. 42, Krefeld) were placed in the test solutions for 15 minutes, removed under sterile conditions and dried for 14 h at room temperature. 0.1 ml inoculation suspensions of the test fungi mentioned above were inoculated into malt agar in a petri dish and, after the agar had solidified, 0.1 ml was spread over the agar surface with a spatula.
# (§6) The test specimens impregnated with the test solutions were then placed on the agar surface under sterile conditions and the dishes were incubated for 7 days at 25° C. The inhibiting effect was then evaluated to the following scheme: […]
# [7] = system: Trichophyton mentagrophytes, ATCC 9533; assay: Fungistatic activity by the inhibition test; details: 7 days at 25° C.; for inhibiting effect evaluation: impregnated cotton specimens
# Experimental: as §1, §2, §5, §6
# [8] = system: Cladosporium cladosporioides, DSM 62121; assay: Fungistatic activity by the inhibition test; details: 7 days at 25° C.; for inhibiting effect evaluation: impregnated cotton specimens
# Experimental: as §1, §2, §5, §6
# [9] = system: Candida albicans, ATCC 10231; assay: Fungistatic activity by the inhibition test; details: 7 days at 25° C.; for inhibiting effect evaluation: impregnated cotton specimens
# Experimental: as §1, §2, §5, §6
# [10] = system: Aspergillus niger, ATCC 6275; assay: Fungistatic activity by the inhibition test; details: 7 days at 25° C.; for inhibiting effect evaluation: impregnated cotton specimens
# Experimental: as §1, §2, §5, §6
# [11] = system: Epicoccum nigrum, self-isolate; assay: Fungistatic activity by the inhibition test; details: 7 days at 25° C.; for inhibiting effect evaluation: impregnated cotton specimens
# Experimental: as §1, §2, §5, §6
# [12] = 100 ppm, contact time 60 mins. at 20° C.
# [13] = 100 ppm, contact time 120 mins. at 20° C.
# [14] = 500 ppm, contact time 60 mins. at 20° C.
# [15] = 500 ppm, contact time 120 mins. at 20° C.
# [16] = 750 ppm, contact time 60 mins. at 20° C.
# [17] = 750 ppm, contact time 120 mins. at 20° C.
compound,measurement,setting,value
"CCCCNC(=O)OCC#CI [IPBC, 3-Iodo-2-propinyl butyl carbamate]",growth after contact (fungicidal activity),[1]; [12],60 mins. +
same,growth after contact (fungicidal activity),[1]; [13],120 mins. +
same,growth after contact (fungicidal activity),[1]; [14],60 mins. −
same,growth after contact (fungicidal activity),[1]; [15],120 mins. −
same,growth after contact (fungicidal activity),[1]; [16],60 mins. −
same,growth after contact (fungicidal activity),[1]; [17],120 mins. −
same,growth after contact (fungicidal activity),[2]; [12],60 mins. +
same,growth after contact (fungicidal activity),[2]; [13],120 mins. +
same,growth after contact (fungicidal activity),[2]; [14],60 mins. −
same,growth after contact (fungicidal activity),[2]; [15],120 mins. −
same,growth after contact (fungicidal activity),[2]; [16],60 mins. −
same,growth after contact (fungicidal activity),[2]; [17],120 mins. −
same,growth after contact (fungicidal activity),[3]; [12],60 mins. +
same,growth after contact (fungicidal activity),[3]; [13],120 mins. +
same,growth after contact (fungicidal activity),[3]; [14],60 mins. +
same,growth after contact (fungicidal activity),[3]; [15],120 mins. +
same,growth after contact (fungicidal activity),[3]; [16],60 mins. +
same,growth after contact (fungicidal activity),[3]; [17],120 mins. +
same,growth after contact (fungicidal activity),[4]; [12],60 mins. +
same,growth after contact (fungicidal activity),[4]; [13],120 mins. +
same,growth after contact (fungicidal activity),[4]; [14],60 mins. +
same,growth after contact (fungicidal activity),[4]; [15],120 mins. +
same,growth after contact (fungicidal activity),[4]; [16],60 mins. +
same,growth after contact (fungicidal activity),[4]; [17],120 mins. +
same,growth after contact (fungicidal activity),[5]; [12],60 mins. +
same,growth after contact (fungicidal activity),[5]; [13],120 mins. +
same,growth after contact (fungicidal activity),[5]; [14],60 mins. −
same,growth after contact (fungicidal activity),[5]; [15],120 mins. −
same,growth after contact (fungicidal activity),[5]; [16],60 mins. −
same,growth after contact (fungicidal activity),[5]; [17],120 mins. −
same,fungistatic activity (overall),[6],very good fungistatic activity
same,inhibition zone,[7]; 100 ppm test solution,3-6 mm
same,inhibiting effect evaluation,[7]; 100 ppm test solution,0/0
same,inhibition zone,[7]; 500 ppm test solution,12-15 mm
same,inhibiting effect evaluation,[7]; 500 ppm test solution,0/0
same,inhibition zone,[7]; 750 ppm test solution,15-18 mm
same,inhibiting effect evaluation,[7]; 750 ppm test solution,0/0
same,inhibition zone,[8]; 100 ppm test solution,1 mm
same,inhibiting effect evaluation,[8]; 100 ppm test solution,0/0
same,inhibition zone,[8]; 500 ppm test solution,5-7 mm
same,inhibiting effect evaluation,[8]; 500 ppm test solution,0/0
same,inhibition zone,[8]; 750 ppm test solution,5-7 mm
same,inhibiting effect evaluation,[8]; 750 ppm test solution,0/0
same,inhibiting effect evaluation,[9]; 100 ppm test solution,1/1
same,inhibition zone,[9]; 500 ppm test solution,3-5 mm
same,inhibiting effect evaluation,[9]; 500 ppm test solution,0/0
same,inhibition zone,[9]; 750 ppm test solution,3-5 mm
same,inhibiting effect evaluation,[9]; 750 ppm test solution,0/0
same,inhibition zone,[10]; 100 ppm test solution,3-5 mm
same,inhibiting effect evaluation,[10]; 100 ppm test solution,0/0
same,inhibition zone,[10]; 500 ppm test solution,9-11 mm
same,inhibiting effect evaluation,[10]; 500 ppm test solution,0/0
same,inhibition zone,[10]; 750 ppm test solution,10-12 mm
same,inhibiting effect evaluation,[10]; 750 ppm test solution,0/0
same,inhibition zone,[11]; 100 ppm test solution,5-9 mm
same,inhibiting effect evaluation,[11]; 100 ppm test solution,0/0
same,inhibition zone,[11]; 500 ppm test solution,11-14 mm
same,inhibiting effect evaluation,[11]; 500 ppm test solution,0/0
same,inhibition zone,[11]; 750 ppm test solution,12-15 mm
same,inhibiting effect evaluation,[11]; 750 ppm test solution,0/0
